For assay [1], the system named is CHEAL (common lambsquarters). As to the kind of experiment: Pre-emergence herbicidal activity, warm season. The class given is in vivo, Chenopodium album. The note with it: GR80 = lowest tested rate (300, 100, 30, 10 g/ha) with 80% or greater inhibition; approx. 14 days after treating; 30/21° C. In short, it runs like this:
(§1)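 GR80 values derive from percent inhibition relative to untreated plants, read roughly 14 days after sowing and pre-emergence soil-surface treatment (compound in 50:50 acetone/water; rates typically 10, 30, 100, 300 g/ha). Warm-season weeds grew at 30/21° C day/night, cool-season ones at 18/13° C; an asterisk marks activity without reaching 80% at the highest rate.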

In the next assay the test system is SASKR (russian thistle). Nature of the assay: Pre-emergence herbicidal activity, cool season. The class given is in vivo, Salsola kali. The following applies: lowest tested rate with 80% or greater inhibition; rates 300, 100, 30, 10 g/ha; about 14 days. In short, it runs like this:
as §1

The subject of the next assay is PANDI (fall panicum). As to the kind of experiment: Pre-plant incorporated (PPI) herbicidal activity, warm season. It is filed as in vivo, Panicum dichotomiflorum. The following applies: for PPI activity GR80, PANDI: pre-plant incorporated, lowest tested rate with 80% or greater inhibition, about 14 days. The protocol:
(§2) In another set of tests, the pre-plant incorporated (PPI) activity of compounds of this invention was evaluated on the same species as for the pre-emergence tests described above. In the PPI tests the following procedure, designed to simulate PPI application, was used.
(§3) A pre-prepared topsoil mixture (described above) was placed in a pot and compacted to a depth of 1.0 to 1.25 cm from the top of the pot. Seeds of each of several monocotyledonous and dicotyledonous annual plant species were placed on top of the soil. A sufficient quantity of soil to cover the seeds and level fill the pot was weighed into an open container. A known amount of the test compound was dissolved or suspended in an organic solvent and applied by spraying to this cover soil. The cover soil was thoroughly mixed to distribute the test compound throughout the cover soil, and was then applied as a cover layer over the seeds. Untreated soil was used as a cover layer for control pots. After treatment the plants were placed in a greenhouse where they received 0.64 cm of overhead irrigation. All subsequent watering consisted of a light overhead mist and/or subirrigation as needed for germination and growth. Tables 9 and 10 below relate to warm season plant species which were placed after pre-emergence treatment in a greenhouse with a 30/21° C. day/night temperature regime. Tables 11 and 12 below relates to cool season plant species placed after pre-emergence treatment in a greenhouse or growth chamber with an 18/13° C. day/night temperature regime. Only the compounds of Examples 1, 6, 8, 11, 13 and 15-20 were included in PPI tests.
(§4) Approximately 14 days after planting and treating, the plants were observed and herbicidal efficacy recorded as percent inhibition by comparison with untreated plants.

The next assay relates to POLCO (wild buckwheat). As to the kind of experiment: Pre-plant incorporated (PPI) herbicidal activity, cool season. It is filed as in vivo, Polygonum convolvulus. The following applies: for inhibition at 30 g/ha / inhibition at 100 g/ha / inhibition at 300 g/ha / inhibition at 900 g/ha: Fallopia convolvulus, weed, PPI application, read-out: Percent inhibition POLCO; for PPI activity GR80, POLCO: pre-plant incorporated, lowest tested rate with 80% or greater inhibition, about 14 days. The protocol:
as §2, §3, §4

The subject of another assay is ALOMY (blackgrass). The description is as above. The class given is in vivo, Alopecurus myosuroides. The note with it: for inhibition at 30 g/ha / inhibition at 100 g/ha / inhibition at 300 g/ha / inhibition at 900 g/ha / inhibition at 10 g/ha: Alopecurus myosuroides, weed, PPI application, read-out: Percent inhibition ALOMY; for PPI activity GR80, ALOMY: pre-plant incorporated, lowest tested rate with 80% or greater inhibition, about 14 days. The method, then: as §2, §3, §4

The subject of a further assay is SETVI (green foxtail). Described as above. The class given is in vivo, Setaria viridis. The following applies: for inhibition at 30 g/ha / inhibition at 100 g/ha / inhibition at 300 g/ha / inhibition at 900 g/ha / inhibition at 10 g/ha: Setaria viridis, weed, PPI application, read-out: Percent inhibition SETVI; for PPI activity GR80, SETVI: pre-plant incorporated, lowest tested rate with 80% or greater inhibition, about 14 days. The protocol:
as §2, §3, §4

A further assay has as its system AVEFA (wild oat). The assay is described as above. It is filed as in vivo, Avena fatua. The note with it: for inhibition at 30 g/ha / inhibition at 100 g/ha / inhibition at 300 g/ha / inhibition at 900 g/ha / inhibition at 10 g/ha: Avena fatua, weed, PPI application, read-out: Percent inhibition AVEFA; for PPI activity GR80, AVEFA: pre-plant incorporated, lowest tested rate with 80% or greater inhibition, about 14 days. The protocol: as §2, §3, §4

The test system of the next assay is LOLMG (annual ryegrass). As to the kind of experiment: Post-emergence herbicidal activity, cool season. The note with it: abraded plants sprayed at 300, 100, 30 and 10 g/ha; about 14 days after treatment. The class given is in vivo, Lolium multiflorum. In short, it runs like this: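 Post-emergence foliar spray; plants abraded (garnet 200w, ~850 kPa sandblast) before application. Rates 300/100/30/10 g/ha in 50:50 acetone:water, 3,100 l/ha, 511 kPa. Greenhouse 18/13° C. day/night; % inhibition vs abraded unsprayed controls at ~14 days after treatment, GR80 derived.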

Each structure is given as a SMILES string.

Regarding `CCN(CC)C(=O)n1cnc(S(=O)(=O)C(F)(F)Br)n1` [Example 1, 3-(bromodifluoromethylsulfonyl)-1-(N,N-diethylcarbamoyl)-1,2,4-triazole], the “Pre-emergence activity (GR80) CHEAL” value in assay [1] worked out at 300 g/ha. In addition, the “Pre-emergence activity GR80, SASKR” value in the assay on SASKR (russian thistle) is given as 300 g/ha. The “PPI activity GR80, PANDI” value in the assay with PANDI (fall panicum) is recorded as 100 g/ha. For the same compound, in the assay on POLCO (wild buckwheat), the inhibition (usually how much of the control response was suppressed) at 30 g/ha turned out to be 30%, the inhibition at 100 g/ha was 90%, the inhibition at 300 g/ha is 100% and the inhibition at 900 g/ha is 100%. Further, in the assay on POLCO (wild buckwheat), the “PPI activity GR80, POLCO” value is “* (activity observed, at least at highest rate, but <80% inhibition)”. Besides, in the assay with ALOMY (blackgrass), the inhibition at 30 g/ha came out at 80%, the inhibition at 100 g/ha was 99%, the inhibition at 300 g/ha was found to be 100% and the inhibition at 900 g/ha is 100%. The “PPI activity GR80, ALOMY” value with ALOMY (blackgrass) stood at 100 g/ha. In the assay with SETVI (green foxtail), the inhibition at 30 g/ha came out at 80%, the inhibition at 100 g/ha was found to be 99%, the inhibition at 300 g/ha was found to be 100% and the inhibition at 900 g/ha came out at 100%. Further, in the assay with SETVI (green foxtail), the “PPI activity GR80, SETVI” value was found to be 100 g/ha. In the assay with AVEFA (wild oat), the inhibition at 30 g/ha stood at 0%, the inhibition at 100 g/ha is 20%, the inhibition at 300 g/ha came out at 95% and the inhibition at 900 g/ha came out at 90%. The “PPI activity GR80, AVEFA” value in the assay with AVEFA (wild oat) was 300 g/ha. In addition, the “Post-emergence activity GR80, LOLMG” value in the assay with LOLMG (annual ryegrass) is “[empty]”.

With `CCSC(F)(F)S(=O)(=O)c1ncn(C(=O)N(CC)CC)n1` [Example 8, 1-(N,N-diethylcarbamoyl)-3-[difluoro(ethylthio)methylsulfonyl]-1,2,4-triazole], the “Pre-emergence activity (GR80) CHEAL” value in assay [1] was 100 g/ha. The “Pre-emergence activity GR80, SASKR” value in the assay on SASKR (russian thistle) amounted to 300 g/ha. For the same compound, the inhibition at 30 g/ha in the assay with PANDI (fall panicum) (Panicum dichotomiflorum, PPI application, 30 g/ha, read-out: Percent inhibition PANDI) was determined as 95%. In addition, the inhibition at 100 g/ha in the assay on PANDI (fall panicum) (Panicum dichotomiflorum, PPI application, 100 g/ha, read-out: Percent inhibition PANDI) came to 100%. For the same compound, the inhibition at 300 g/ha in the assay with PANDI (fall panicum) (Panicum dichotomiflorum, PPI application, 300 g/ha, read-out: Percent inhibition PANDI) is 100%. Further, in the assay on PANDI (fall panicum) (Panicum dichotomiflorum, PPI application, 900 g/ha, read-out: Percent inhibition PANDI), the inhibition at 900 g/ha worked out at 100%. The “PPI activity GR80, PANDI” value with PANDI (fall panicum) is 30 g/ha. Besides, in the assay with POLCO (wild buckwheat), the inhibition at 30 g/ha is 0%, the inhibition at 100 g/ha is 0%, the inhibition at 300 g/ha was 85% and the inhibition at 900 g/ha turned out to be 100%. For the same compound, the “PPI activity GR80, POLCO” value in the assay with POLCO (wild buckwheat) is listed as 300 g/ha. Also, in the assay with ALOMY (blackgrass), the inhibition at 30 g/ha was determined as 0%, the inhibition at 100 g/ha is 95%, the inhibition at 300 g/ha was 100% and the inhibition at 900 g/ha amounted to 100%. In addition, in the assay with ALOMY (blackgrass), the “PPI activity GR80, ALOMY” value is on record as 100 g/ha. Moreover, in the assay on SETVI (green foxtail), the inhibition at 30 g/ha was found to be 100%, the inhibition at 100 g/ha was 100%, the inhibition at 300 g/ha amounted to 100% and the inhibition at 900 g/ha is 100%. Moreover, in the assay with SETVI (green foxtail), the “PPI activity GR80, SETVI” value was determined as 30 g/ha. For the same compound, in the assay on AVEFA (wild oat), the inhibition at 30 g/ha came out at 10%, the inhibition at 100 g/ha stood at 75%, the inhibition at 300 g/ha is 95% and the inhibition at 900 g/ha amounted to 100%. In the assay with AVEFA (wild oat), the “PPI activity GR80, AVEFA” value was determined as 100 g/ha. Also, the “Post-emergence activity GR80, LOLMG” value in the assay with LOLMG (annual ryegrass) was “[empty]”.

In the case of `C=C(C)CC(F)(F)S(=O)(=O)c1ncn(C(=O)N(CC)CC)n1` [Example 18], in assay [1], the “Pre-emergence activity (GR80) CHEAL” value stood at 300 g/ha. Moreover, in the assay on SASKR (russian thistle), the “Pre-emergence activity GR80, SASKR” value came out at 300 g/ha. In the assay on POLCO (wild buckwheat), the “PPI activity GR80, POLCO” value is 100 g/ha. In addition, in the assay on ALOMY (blackgrass), the inhibition at 10 g/ha came to 60%, the inhibition at 30 g/ha came to 60%, the inhibition at 100 g/ha is 30% and the inhibition at 300 g/ha was found to be 80%. For the same compound, in the assay with ALOMY (blackgrass), the inhibition at 900 g/ha is 80% and the “PPI activity GR80, ALOMY” value is given as 100 g/ha. Also, in the assay on SETVI (green foxtail), the inhibition at 10 g/ha was 100%, the inhibition at 30 g/ha was 100%, the inhibition at 100 g/ha is 100% and the inhibition at 300 g/ha was determined as 60%. In the assay on SETVI (green foxtail), the inhibition at 900 g/ha stood at 100% and the “PPI activity GR80, SETVI” value came to 30 g/ha. Besides, in the assay on AVEFA (wild oat), the inhibition at 10 g/ha was found to be 0%, the inhibition at 30 g/ha came to 0%, the inhibition at 100 g/ha was 10% and the inhibition at 300 g/ha amounted to 50%. Besides, in the assay on AVEFA (wild oat), the inhibition at 900 g/ha was determined as 99% and the “PPI activity GR80, AVEFA” value is listed as 300 g/ha. Besides, the “Post-emergence activity GR80, LOLMG” value in the assay on LOLMG (annual ryegrass) is “[empty]”.

In the case of `C=C(Br)CC(F)(F)S(=O)(=O)c1ncn(C(=O)N(CC)CC)n1` [Example 19], the “Pre-emergence activity (GR80) CHEAL” value in assay [1] came out at 100 g/ha. The “Pre-emergence activity GR80, SASKR” value in the assay with SASKR (russian thistle) came out at 100 g/ha. Moreover, in the assay with POLCO (wild buckwheat), the “PPI activity GR80, POLCO” value is given as “* (activity observed, at least at highest rate, but <80% inhibition)”. Moreover, in the assay with ALOMY (blackgrass), the inhibition at 10 g/ha turned out to be 60%, the inhibition at 30 g/ha was found to be 50%, the inhibition at 100 g/ha was 70% and the inhibition at 300 g/ha was 100%. Also, in the assay on ALOMY (blackgrass), the inhibition at 900 g/ha was 100% and the “PPI activity GR80, ALOMY” value came out at 30 g/ha. In the assay with SETVI (green foxtail), the inhibition at 10 g/ha turned out to be 50%, the inhibition at 30 g/ha worked out at 60%, the inhibition at 100 g/ha came out at 100% and the inhibition at 300 g/ha was 100%. In addition, in the assay with SETVI (green foxtail), the inhibition at 900 g/ha worked out at 100% and the “PPI activity GR80, SETVI” value was found to be 30 g/ha. In the assay with AVEFA (wild oat), the inhibition at 10 g/ha came out at 0%, the inhibition at 30 g/ha came to 0%, the inhibition at 100 g/ha came to 30% and the inhibition at 300 g/ha turned out to be 70%. Also, in the assay on AVEFA (wild oat), the inhibition at 900 g/ha amounted to 60% and the “PPI activity GR80, AVEFA” value is reported as 300 g/ha. For the same compound, the “Post-emergence activity GR80, LOLMG” value in the assay on LOLMG (annual ryegrass) was “[empty]”.

Source of the values: patent publication US6461997B1, “Triazole sulfones having herbicidal activity” (Monsanto Technology LLC, priority 1999, dated 2002).
